Consider 9 compounds from PubChem BioAssay (NCI).

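Protocol summary: plate cells (96-well), add compound at 5 concentrations, incubate 48 h, interpolate endpoints linearly. GI50 marks 50% less growth. TGI is the concentration that stops growth completely.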

Some test systems named below: SR leukemia; U251 CNS; CAKI-1 renal; OVCAR-3 ovarian; UACC-257 melanoma; KM12 colon; HOP-62 NSCLC; RPMI-8226 leukemia; SF-268 CNS; UACC-62 melanoma; SK-MEL-28 melanoma.
Common to all, as to experiment: NCI tumour cell line growth inhibition, 48 h

In the case of `COc1cc(-c2c(C#N)c(N)c(C#N)c3c2COc2ccccc2-3)cc(OC)c1OC`, the TGI in the assay with SR leukemia was more than 100 µM; in the assay on U251 CNS, 34.4 µM; in the assay with CAKI-1 renal, more than 100 µM; in the assay on OVCAR-3 ovarian it was more than 83.8 µM; in the assay with UACC-257 melanoma it was more than 100 µM; with KM12 colon, more than 100 µM. The TGI with HOP-62 NSCLC was 19 µM; in the assay with RPMI-8226 leukemia, more than 100 µM; with SF-268 CNS it was 34 µM; with UACC-62 melanoma it was more than 100 µM; with SK-MEL-28 melanoma it was more than 100 µM.
Take `c1ccc(C(c2ccccc2)[P+](c2ccccc2)(c2ccccc2)c2ccccc2)cc1`: the TGI was 12.1 µM in the assay with U251 CNS; 8.47 µM with CAKI-1 renal; 3 µM in the assay on OVCAR-3 ovarian; 3.17 µM in the assay with UACC-257 melanoma; 2.7 µM in the assay with KM12 colon; 6.63 µM with HOP-62 NSCLC. For the same compound, the TGI with RPMI-8226 leukemia was found to be 1.28 µM; in the assay on SF-268 CNS, 15.3 µM; with UACC-62 melanoma, 3.56 µM; in the assay with SK-MEL-28 melanoma, 5.18 µM.
With `CCCCCCCCCCCCCCCC[N+](C)(C)CCN(Cc1ccc(OC)cc1)c1ncccn1`, the GI50 with SR leukemia is 1.25 µM; in the assay with CAKI-1 renal, 8.14 µM; in the assay with OVCAR-3 ovarian, 1.14 µM; with UACC-257 melanoma it was 5.65 µM; in the assay on HOP-62 NSCLC, 1.54 µM; with SF-268 CNS it was 1.39 µM. Further, the figures for the GI50 in the assay with UACC-62 melanoma and with SK-MEL-28 melanoma were 1.75 µM and 2.1 µM, respectively. The TGI in the assay on SR leukemia was more than 100 µM; in the assay with CAKI-1 renal, 34 µM; with OVCAR-3 ovarian, 3.32 µM; with UACC-257 melanoma, 39.8 µM; in the assay with HOP-62 NSCLC, 2.95 µM; in the assay on SF-268 CNS, 3.74 µM. Besides, the TGI was found to be 4.37 µM in the assay with UACC-62 melanoma and 4.5 µM in the assay with SK-MEL-28 melanoma.
In the case of `C=CCOC1OC(CS(=O)(=O)O)C(O)C(O)C1O` (stereo not drawn), the TGI in the assay with SR leukemia, in the assay on U251 CNS, in the assay on CAKI-1 renal, in the assay on OVCAR-3 ovarian, with UACC-257 melanoma and in the assay on KM12 colon was more than 100 µM each time. The TGI in the assay with HOP-62 NSCLC, in the assay with RPMI-8226 leukemia, with UACC-62 melanoma and in the assay on SK-MEL-28 melanoma was more than 100 µM in each case.
`CS/C(=N\C(=S)Nc1ccccc1)Nc1ccccc1`: the TGI in the assay with SR leukemia is 64.1 µM; in the assay with U251 CNS, more than 100 µM; with CAKI-1 renal, 54.7 µM; with OVCAR-3 ovarian, 48 µM; with KM12 colon, more than 100 µM; with HOP-62 NSCLC it was more than 100 µM. The TGI in the assay with RPMI-8226 leukemia was 62.1 µM; with SF-268 CNS, more than 100 µM; in the assay with UACC-62 melanoma it was 53.6 µM; in the assay with SK-MEL-28 melanoma it was more than 100 µM.
With `O=C(c1ccccc1)[C@H]1Nc2ccc(Cl)cc2[C@H]2OCCC[C@@H]12`, the TGI turned out to be 79.2 µM with SR leukemia; 31.7 µM in the assay on U251 CNS; 63 µM in the assay on CAKI-1 renal; 30.7 µM in the assay on OVCAR-3 ovarian; 34.1 µM in the assay on KM12 colon; 32.6 µM in the assay with HOP-62 NSCLC. Moreover, the TGI amounted to 57.7 µM in the assay with RPMI-8226 leukemia, 39.5 µM with SF-268 CNS, 33.5 µM in the assay on UACC-62 melanoma and 32.2 µM with SK-MEL-28 melanoma.
With `FC(F)(F)C(C1=NC(C(F)(F)F)(C(F)(F)F)N=C(N2CCOCC2)O1)C(F)(F)F`, the TGI in the assay on SR leukemia was 61.2 µM; in the assay with U251 CNS, more than 100 µM; in the assay on CAKI-1 renal, 61.6 µM; in the assay with OVCAR-3 ovarian, more than 100 µM; in the assay on UACC-257 melanoma it was 75.3 µM; in the assay on KM12 colon it was more than 100 µM. In addition, the TGI is 57.7 µM with RPMI-8226 leukemia, more than 100 µM with SF-268 CNS, 33.5 µM in the assay on UACC-62 melanoma and 52.4 µM in the assay on SK-MEL-28 melanoma.
For the compound `COc1ccc(C2C(=O)C(Cl)N2Nc2nc(C)cc(=O)[nH]2)cc1OC` (stereo not drawn), the TGI with SR leukemia was more than 100 µM; in the assay with U251 CNS it was more than 100 µM; in the assay on OVCAR-3 ovarian it was 84.8 µM; in the assay with UACC-257 melanoma, more than 100 µM; in the assay on KM12 colon, more than 100 µM; with HOP-62 NSCLC, more than 100 µM. Besides, the TGI is 55.9 µM with RPMI-8226 leukemia, more than 100 µM in the assay with SF-268 CNS, more than 100 µM in the assay on UACC-62 melanoma and more than 100 µM in the assay on SK-MEL-28 melanoma.
Take `Nc1ccc(C2NC(=O)Cc3c2ccc2ccccc32)cc1` (stereo not drawn): the TGI in the assay with SR leukemia, with U251 CNS, in the assay with CAKI-1 renal, with OVCAR-3 ovarian, in the assay on UACC-257 melanoma and in the assay with KM12 colon was more than 100 µM each time. Also, the TGI in the assay on HOP-62 NSCLC, in the assay with RPMI-8226 leukemia, with SF-268 CNS, in the assay with UACC-62 melanoma and in the assay on SK-MEL-28 melanoma was more than 100 µM in each case.
